# ChEMBL document CHEMBL4052744, “Diverse heterocyclic scaffolds as dCTP pyrophosphatase 1 inhibitors. Part 1: Triazoles, triazolopyrimidines, triazinoindoles, quinoline hydrazones and arylpiperazines” (Bioorg Med Chem Lett, 2017)
# Target: T1, dCTP pyrophosphatase 1 (Homo sapiens, UniProt Q9H773)
# T1 sequence (Q9H773 whole entry): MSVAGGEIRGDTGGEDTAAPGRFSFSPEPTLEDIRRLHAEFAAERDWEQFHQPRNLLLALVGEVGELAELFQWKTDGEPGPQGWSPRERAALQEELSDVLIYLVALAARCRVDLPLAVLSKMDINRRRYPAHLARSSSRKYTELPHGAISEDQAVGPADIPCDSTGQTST
# Test: Inhibition of human dCTPase 1
row,IC50,SMILES
1,660 nM,COc1ccccc1C(=O)N1CCN(c2cnn(-c3ccccc3)c(=O)c2Cl)CC1
2,1400 nM,CCc1c(C)nc(N2CCN(c3cccc(OC)c3)CC2)nc1O
3,1100 nM,O=C(c1ccccc1Cl)N1CCN(c2ccc([N+](=O)[O-])c(NC3CC3)c2)CC1
4,1910 nM,Cn1c2ccccc2c2nnc(SCCN3CCCCC3)nc21
5,810 nM,CCNc1cc(N2CCN(C(=O)c3ccccc3C)CC2)ccc1[N+](=O)[O-]
6,3200 nM,CS(=O)(=O)N1CCN(c2cnn(-c3ccccc3)c(=O)c2Cl)CC1
7,1500 nM,CCNc1cc(N2CCN(C(=O)c3ccc(OC)cc3)CC2)ccc1[N+](=O)[O-]
8,550 nM,COc1ccc2c(c1)c1nnc(SCCN3CCOCC3)nc1n2C
9,1200 nM,CCOc1ccc(C(=O)N2CCN(c3cnn(-c4ccccc4)c(=O)c3Cl)CC2)cc1
10,1100 nM,CCc1c(C)nc(N2CCN(c3ccc(OC)cc3)CC2)nc1O
11,910 nM,CCNc1cc(N2CCN(C(=O)c3ccc(CC)cc3)CC2)ccc1[N+](=O)[O-]
12,980 nM,O=C(c1ccco1)N1CCN(c2nc3ccccc3n3cnnc23)CC1
13,1100 nM,CC(C)(C)c1cc(=O)[nH]c(N2CCN(Cc3ccc4c(c3)OCO4)CC2)n1
14,940 nM,CCn1c2ccccc2c2nnc(SCCN3CCCCC3)nc21
